# Test results reported in patent US6242440A, “Synergistic compositions comprising an oxathiazine and a benzothiophene-2-carboxamide-S,S-dioxide” (Janssen Pharmaceutica N.V., priority 1997, dated 2001).
# Tests used:
# Aspergillus = assay: wood stick test (Scots Pine); assay type: cell-based, Aspergillus niger
# Procedure: (§1) Oven-dried wood sticks (50×12×2 mm) of Scots Pine (Pinus sylvestris) were dipped during 3 hours in a methanol solution comprising a compound of formula (I), a compound of formula (II), or a combination of a compound of formula (I) and a compound of formula (II), and allowed to dry overnight in a sterile laminar air flow. In each Petri dish one stick was placed on culture medium, PDA PS (Potato Dextrose Agar containing 60 mg penicillin and 200 mg streptomycin), previously seeded with inoculum. Two drops of fungal or spore suspension were pipetted on the upper surface of the stick The Petri dishes were incubated at 22° C. and 70% relative humidity. The test was evaluated after sufficient growth of the fungus on the control sticks. The following score system was used:
# (§2) 0: sticks free of fungal growth
# (§3) 1: traces of growth on the stick
# (§4) 2: slight growth (5 to 25% of the surface covered)
# (§5) 3 : moderate growth (25 to 50% of the surface covered)
# (§6) 4: vigorous to maximum growth (more tha 50% covered)
# (§7) To calculate synergism results were converted to the next artificial activities:
# (§8) Yhe expected activities E were calculated by using the so-called formula of Colby: (Colby, S. R. Weeds 1967, 15: 20-22), [formula]
# (§9) wherein X and Y express the relative activities obtained for each of the active ingredients. A synergistic effect can be acknowledged if the found activity exceeds calculated activity.
# (§10) The compound of formula (I) used in the experiment was 3-benzo[b]-thien-2-yl)-5,6-dihydro-1,4,2-oxathiazine 4-oxide, i.e. compound (1). The compound of formula (II) used in the experiment was N-cyclohexyl-benzothiophene-2-carboxamide-S,S-dioxide, i.e. compound (2).
# Sclerophoma = assay: wood stick test (Scots Pine); assay type: cell-based, Sclerophoma entoxylina
# Procedure: as §1, §2, §3, §4, §5, §6, §7, §8, §9, §10
# Aureobasidium = assay: wood stick test (Scots Pine); assay type: cell-based, Aureobasidium pullulans; conditions: read-out: measured (relative) activity %
# Procedure: as §1, §2, §3, §4, §5, §6, §7, §8, §9, §10
# Aspergillus niger = assay: poison plate assay, mycelial growth and sporulation; assay type: cell-based
# Procedure: (§11) The efficacy of the active ingredients against mycelial growth and sporulation of Aureobasidium pullulans, Aspergillus niger, Scierophoma entoxylina, Trichodenna viride, was determined in the poison plate assay. The required concentrations of the fungicide(s) were obtained by diluting the active ingredients (I), (II) or the combination of (I) and (II) in dimethyl sulfoxide (DMSO) at 800 times the final test concentration. The stock solutions in DMSO were pipetted into Petri-dishes. Malt extract agar (3%) was added aseptically and uniform distribution was obtained by shaking. Each plate was spot inoculated with a spore or mycelial suspension. After incubation at 22° C. and 70% relative humidity for a period long enough to allow complete growth of controls, diameters of colonies were measured. Relative activities were calculated by taking the absence of fungal growth (diameter 0 mm) as 100%. From the activity of the active ingredients alone, the expected activities E were calculated by using the so-called formula of Colby: (Colby, S. R. Weeds 1967, 15: 20-22), [formula]
# as §9
# (§12) Equal efficacy was observed whenever complete inhibition of fungal growth occurred by one of the active ingredients (I) or (II) alone. The compound of formula (I) used in the experiment was 3-benzo[b]-thien-2-yl)-5,6-dihydro-1,4,2-oxathiazine 4-oxide, i.e. compound (1). The compound of formula (II) used in the experiment was N-cyclohexyl-benzothiophene-2-carboxamide-S,S-dioxide, i.e. compound (2).
# Sclerophoma entoxylina = assay: as above; assay type: cell-based
# Procedure: as §11, §9, §12
# Aureobasidium pullulans = assay: as above; assay type: cell-based
# Procedure: as §11, §9, §12
# Trichoderma viride = assay: as above; assay type: cell-based
# Procedure: as §11, §9, §12
smiles,measurement,setting,value
"[O-][S+]1CCON=C1c1cc2ccccc2s1 (stereo not shown) [compound (1), 3-(benzo[b]thien-2-yl)-5,6-dihydro-1,4,2-oxathiazine, 4-oxide]",% overgrown of the sticks,Aspergillus; (1) 200 ppm,100%
same,stick test scores,Aspergillus; (1) 200 ppm,4 (vigorous to maximum growth (more tha 50% covered))
same,% overgrown of the sticks,Aspergillus; (1) 400 ppm,50%
same,stick test scores,Aspergillus; (1) 400 ppm,3 (moderate growth (25 to 50% of the surface covered))
same,activity at 400 ppm,"Aspergillus; Aspergillus, (1) 400 ppm, read-out: measured (relative) activity %",50%
same,% overgrown of the sticks,Sclerophoma; (1) 200 ppm,100%
same,stick test scores,Sclerophoma; (1) 200 ppm,4 (vigorous to maximum growth (more tha 50% covered))
same,% overgrown of the sticks,Sclerophoma; (1) 400 ppm,50%
same,stick test scores,Sclerophoma; (1) 400 ppm,3 (moderate growth (25 to 50% of the surface covered))
same,activity at 200 ppm,"Sclerophoma; Sclerophoma entoxylina, (1) 200 ppm, read-out: measured (relative) activity %",0%
same,activity at 400 ppm,"Sclerophoma; Sclerophoma entoxylina, (1) 400 ppm, read-out: measured (relative) activity %",50%
same,activity at 200 ppm,Aureobasidium; (1) 200 ppm,0%
same,activity at 400 ppm,Aureobasidium; (1) 400 ppm,50%
same,activity measured,"Aspergillus niger; Exp 1, 5 days, (1) 0.62 mg/l",5%
same,growth,"Aspergillus niger; Exp 1, 5 days, (1) 0.62 mg/l",42 mm
same,activity measured,"Aspergillus niger; Exp 1, 5 days, (1) 1.25 mg/l",14%
same,growth,"Aspergillus niger; Exp 1, 5 days, (1) 1.25 mg/l",38 mm
same,activity measured,"Aspergillus niger; Exp 1, 5 days, (1) 2.50 mg/l",39%
same,growth,"Aspergillus niger; Exp 1, 5 days, (1) 2.50 mg/l",27 mm
same,activity measured,"Aspergillus niger; Exp 1, 5 days, (1) 5.00 mg/l",100%
same,growth,"Aspergillus niger; Exp 1, 5 days, (1) 5.00 mg/l",0 mm
same,activity measured,"Aspergillus niger; Exp 2, 7 days, (1) 1.25 mg/l",16%
same,growth,"Aspergillus niger; Exp 2, 7 days, (1) 1.25 mg/l",38 mm
same,activity measured,"Aspergillus niger; Exp 2, 7 days, (1) 2.50 mg/l",44%
same,growth,"Aspergillus niger; Exp 2, 7 days, (1) 2.50 mg/l",25 mm
same,activity measured,"Sclerophoma entoxylina; Exp 1, 5 days, (1) 0.62 mg/l",2%
same,growth,"Sclerophoma entoxylina; Exp 1, 5 days, (1) 0.62 mg/l",42 mm
same,activity measured,"Sclerophoma entoxylina; Exp 1, 5 days, (1) 1.25 mg/l",14%
same,growth,"Sclerophoma entoxylina; Exp 1, 5 days, (1) 1.25 mg/l",37 mm
same,activity measured,"Sclerophoma entoxylina; Exp 1, 5 days, (1) 2.50 mg/l",37%
same,growth,"Sclerophoma entoxylina; Exp 1, 5 days, (1) 2.50 mg/l",27 mm
same,activity measured,"Sclerophoma entoxylina; Exp 1, 5 days, (1) 5.00 mg/l",84%
same,growth,"Sclerophoma entoxylina; Exp 1, 5 days, (1) 5.00 mg/l",7 mm
same,activity measured,"Sclerophoma entoxylina; Exp 2, 7 days, (1) 1.25 mg/l",4%
same,growth,"Sclerophoma entoxylina; Exp 2, 7 days, (1) 1.25 mg/l",47 mm
same,activity measured,"Sclerophoma entoxylina; Exp 2, 7 days, (1) 2.50 mg/l",18%
same,growth,"Sclerophoma entoxylina; Exp 2, 7 days, (1) 2.50 mg/l",40 mm
same,activity measured,"Aureobasidium pullulans; Exp 1, 5 days, (1) 0.62 mg/l",13%
same,growth,"Aureobasidium pullulans; Exp 1, 5 days, (1) 0.62 mg/l",33 mm
same,activity measured,"Aureobasidium pullulans; Exp 1, 5 days, (1) 1.25 mg/l",32%
same,growth,"Aureobasidium pullulans; Exp 1, 5 days, (1) 1.25 mg/l",26 mm
same,activity measured,"Aureobasidium pullulans; Exp 1, 5 days, (1) 2.50 mg/l",61%
same,growth,"Aureobasidium pullulans; Exp 1, 5 days, (1) 2.50 mg/l",15 mm
same,activity measured,"Aureobasidium pullulans; Exp 1, 5 days, (1) 5.00 mg/l",87%
same,growth,"Aureobasidium pullulans; Exp 1, 5 days, (1) 5.00 mg/l",5 mm
same,activity measured,"Aureobasidium pullulans; Exp 2, 7 days, (1) 1.25 mg/l",8%
same,growth,"Aureobasidium pullulans; Exp 2, 7 days, (1) 1.25 mg/l",44 mm
same,activity measured,"Aureobasidium pullulans; Exp 2, 7 days, (1) 2.50 mg/l",21%
same,growth,"Aureobasidium pullulans; Exp 2, 7 days, (1) 2.50 mg/l",38 mm
same,activity measured,"Trichoderma viride; Exp 1, 5 days, (1) 0.62 mg/l",0%
same,growth,"Trichoderma viride; Exp 1, 5 days, (1) 0.62 mg/l",49 mm
same,activity measured,"Trichoderma viride; Exp 1, 5 days, (1) 1.25 mg/l",0%
same,growth,"Trichoderma viride; Exp 1, 5 days, (1) 1.25 mg/l",49 mm
same,activity measured,"Trichoderma viride; Exp 1, 5 days, (1) 2.50 mg/l",2%
same,growth,"Trichoderma viride; Exp 1, 5 days, (1) 2.50 mg/l",48 mm
same,activity measured,"Trichoderma viride; Exp 1, 5 days, (1) 5.00 mg/l",29%
same,growth,"Trichoderma viride; Exp 1, 5 days, (1) 5.00 mg/l",35 mm
same,activity measured,"Trichoderma viride; Exp 2, 7 days, (1) 1.25 mg/l",12%
same,growth,"Trichoderma viride; Exp 2, 7 days, (1) 1.25 mg/l",43 mm
same,activity measured,"Trichoderma viride; Exp 2, 7 days, (1) 2.50 mg/l",29%
same,growth,"Trichoderma viride; Exp 2, 7 days, (1) 2.50 mg/l",35 mm
